Test results as given in publication PMC9101373, “Design of DNA Intercalators Based on 4-Carboranyl-1,8-Naphthalimides: Investigation of Their DNA-Binding Ability and Anticancer Activity” (International Journal of Molecular Sciences, 2022).
Read-outs that look alike come from different tables or passages of the source.

Assays:
calf thymus DNA (ct-DNA) [1] = test: Melting temperature (Tm) measurements of ct-DNA, thermal denaturation; type: binding; details: r = [compound]/[ct-DNA] = 0.3; pH 7.0, 20 mM cacodylate buffer; Tm of ct-DNA alone 74 °C
Protocol: The melting temperature (Tm) of DNA is defined as the temperature at which 50% of the DNA is in form of single strands forming randomly coiled structures. DNA melting is measured by the absorbance of UV light (260 nm) by the DNA solution, where the amount of UV light absorbed is proportional to the fraction of non-bonded base pairs. The majority of DNA-binding small molecules known thus far stabilize duplex DNA against heat denaturation. A high, drug-induced increase in the Tm of DNA is generally viewed as an excellent criterion to select DNA ligands and is a common feature of several anticancer drugs such as intercalators (a significant increase in Tm = 3–8 °C is observed for strong intercalation) and alkylators. The reverse situation (destabilization of DNA to facilitate its denaturation) may be an attractive option to identify therapeutic agents acting on the DNA structure.
Our study conducted Tm measurement to estimate the impact of 1,8-naphthalimides bearing the carborane cluster on DNA stabilization (Table 1, Figures S249–S253, ESI).
The measurements were performed by adding aliquots of DMSO stock solution of the tested compounds to the buffer solution (pH 7.0, 20 mM, cacodylate buffer, DMSO content of the final solution = 0.24–0.36%). The Tm curves were collected at r = 0.3 (r = [compound]/[ct-DNA]) to assure the dominant binding mode. Thermal melting curves were determined by following the absorption change at 260 nm as a function of temperature by using a GBC Cintra10 UV–vis spectrometer (Dandenong, Australia) equipped with a GBC Thermocell Peltier Power Supply (Dandenong, Australia) using a 1 cm path length cell. The absorbance of the samples was monitored at 260 nm from 30 to 90 °C (95 °C for compounds 54–61) with a heating rate of 1 °C/min. Tm values are the midpoints or the transition curves determined from the maximum of the first derivative. The ΔTm values were calculated by subtracting the Tm of the free nucleic acid from the Tm of the sample. Every Tm value reported in this study was average at least three measurements. The error in Tm was 0.5 °C.

HepG2 cells [2] = test: In vitro cytotoxic activity, MTT assay; type: cell-based, human; details: 24 h treatment, read-out: IC50, compound concentration required to inhibit cell growth by 50%
Protocol: The obtained 1,8-naphthalimide–carborane conjugates were investigated for their in vitro antitumor activity by examining their cytotoxic effects using the MTT tetrazolium dye assay against the human cancer cell line HepG2 established from hepatocellular carcinoma. IC50 refers to the drug concentration (µM) required to inhibit cell growth by 50%.
The cytotoxic properties of the synthesized compounds were evaluated using the human hepatocellular carcinoma cell line HepG2 established from hepatocellular carcinoma. The HepG2 cell line was purchased from ECACC (Salisbury, UK). Cells were grown in EMEM medium (Corning®) supplemented with 10% heat-inactivated fetal bovine serum (FBS) (Corning®) and antibiotics (Corning®), at 37 °C in a 5% CO2 atmosphere. Upon reaching 80–90% confluency, cells were detached with the trypsin (Corning®) and transferred into 96-well microplates at a density of 12 × 10^3. After overnight incubation at 37 °C in a humidified atmosphere containing 5% CO2, the cells were treated for the next 24 h with compounds. The stock solution of each compound was prepared in DMSO at 10 mM. The cytotoxicity was evaluated by the MTT assay. […] Subsequently, the medium was aspirated and replaced with 3-(4,5-dimethylthiazol-2-yl)-2,5-diphenyltetrazolium bromide (MTT) dye solution (50 µL, 0.5 mg/mL). After 3 h incubation, the resulting MTT formazan crystals were dissolved in DMSO (100 µL). To ensure the complete dissolution of formazan, the plates were shaken on an orbital microplate shaker at 1000 rpm for 15 min (Thermoshaker NeoLab 7–0055, Bionovo, Legnica, Poland). The optical density of each well was then measured on a VICTOR Nivo multimode plate reader at a wavelength of 570 nm. Each experiment consisted of 6 replications of each concentration, and each experiment was repeated three times independently. The results were calculated as a percentage of control group viability. The IC50 values were determined using a non-linear regression from the plot of % viability against log dose of compounds by using GraphPad Prism 6.0 software (GraphPad, San Diego, CA, USA).

calf thymus DNA (ct-DNA) [3] = test: UV–vis absorption titration with ct-DNA, binding constant Kb; details: 10 µM compound, ct-DNA 1.25–15 µM
Text: The interaction of 1,8-naphthalimides bearing carborane clusters with ct-DNA was also studied by UV–vis absorption titration to better understand the mode of interaction and binding strength. For compounds interacting with DNA by intercalation, bathochromic and hypochromic effects are observed in the absorption spectra. The spectral changes observed in the electronic absorption of 6–11, 16–19, 36–43, and 54–61 in the absence and presence of ct-DNA are illustrated in Figures S271–S296 (ESI). Progressive addition of ct-DNA at the concentration of 1.25–15 µM to a fixed amount of modified naphthalic anhydride or naphthalimide (10 µM concentration) decreased absorbance for almost all the tested modified conjugates, except conjugates 14, 15, and 22–27 for which changes in absorbance were not observed. […] Hypochromicity (10–56%) was also observed for all conjugates, with the highest value for compound 40.
To compare the DNA-binding strength of the tested conjugates, we calculated the binding constant Kb, as described in the Materials and Methods section. […] For conjugates 14, 15, and 22–27, the Kb value could not be determined due to the lack of noticeable changes in the UV spectra.
The measurements were performed by adding aliquots of DMSO stock solution of the tested compounds to the buffer solution (pH 7.4, 20 mM, 50 mM NaCl, Tris-HCl buffer, DMSO content of the final solutions = 0.40–0.61%) to the final concentration of 10 µM. The tested compounds were incubated 5 min, with increasing concentrations ranging from 0 to 15 µM of ct-DNA at 37 °C, then the UV–vis absorption spectra, between 310 and 500 nm (310–550 nm for compounds 36–43 and 54–61), were recorded using a GBC Cintra10 UV–vis spectrometer (Dandenong, Australia) equipped with a GBC Thermocell Peltier Power Supply (Dandenong, Australia) using a 1 cm path length cell. The binding constant was calculated according to the following equation [53]: A0/A−A0=εG/εH−G−εG +εG/εH−G−εG ×1/Kb[DNA] where Kb is the binding constant, A0 and A are the absorbance of the free tested compound, and the apparent one, εG and εH−G are their coefficient, respectively, and [DNA] is the concentration of [DNA] in the base pair. The slope to intercept ratio of the plot between A0/A − A0 versus 1/[DNA] yielded the binding constant.

HepG2 cells [4] = system: HepG2 cells; set-up: method as in PMID 31776032; details: cited from earlier work
human topoisomerase IIα = biological target: T1, human topoisomerase IIα (Homo sapiens, UniProt P11388); test: Human topoisomerase IIα relaxation assay; type: biochemical; details: supercoiled pBR322, concentration range 0.1–100 µM; read-out: IC50, compound concentration required to inhibit the activity of this enzyme by 50%
T1 construct: purchased Inspiralis (Norwich, UK)
Protocol: Therefore, we subjected these compounds to further detailed analyses of inhibitory potential within the concentration range of 0.1–100 µM (Figure S301, ESI) to calculate IC50 values. IC50 refers to the compound concentration (µM) required to inhibit the activity of the topoisomerase enzyme by 50%.
The Human Topoisomerase II-alpha Relaxation Assay Kit was purchased from Inspiralis (Norwich, UK). The Topo IIα inhibition assay was performed as described by the manufacturer. […] Next, TopoIIα (1 U) was added, and the reaction mixture was incubated at 37 °C for an additional 45 min. The reaction was terminated by addition of the STEB buffer (40 % (w/v) sucrose, Tris-HCl (100 mM, pH 8), EDTA (1 mM), bromophenol blue (0.5 mg/mL)). The products were analyzed by electrophoresis using agarose gel (1%) in TAE buffer at 70 V for 2 h, followed by ethidium bromide staining. […] The percentage of Topo-II alpha activity inhibition was calculated by densitometric quantification (Quantity One software, Bio-Rad). The occurrence of a band representing supercoiled DNA on an agarose gel indicated the inhibition of enzyme activity.

calf thymus DNA (ct-DNA) [5] = system: calf thymus DNA (ct-DNA); set-up: method as in PMID 33803403; details: unmodified mitonafide and pinafide; cited from earlier work
HepG2 cells [6] = system: HepG2 cells; set-up: method as in PMID 31776032; details: read-out: IC50, compound concentration required to inhibit cell growth by 50%; cited from earlier work

T1 sequence (P11388 whole entry): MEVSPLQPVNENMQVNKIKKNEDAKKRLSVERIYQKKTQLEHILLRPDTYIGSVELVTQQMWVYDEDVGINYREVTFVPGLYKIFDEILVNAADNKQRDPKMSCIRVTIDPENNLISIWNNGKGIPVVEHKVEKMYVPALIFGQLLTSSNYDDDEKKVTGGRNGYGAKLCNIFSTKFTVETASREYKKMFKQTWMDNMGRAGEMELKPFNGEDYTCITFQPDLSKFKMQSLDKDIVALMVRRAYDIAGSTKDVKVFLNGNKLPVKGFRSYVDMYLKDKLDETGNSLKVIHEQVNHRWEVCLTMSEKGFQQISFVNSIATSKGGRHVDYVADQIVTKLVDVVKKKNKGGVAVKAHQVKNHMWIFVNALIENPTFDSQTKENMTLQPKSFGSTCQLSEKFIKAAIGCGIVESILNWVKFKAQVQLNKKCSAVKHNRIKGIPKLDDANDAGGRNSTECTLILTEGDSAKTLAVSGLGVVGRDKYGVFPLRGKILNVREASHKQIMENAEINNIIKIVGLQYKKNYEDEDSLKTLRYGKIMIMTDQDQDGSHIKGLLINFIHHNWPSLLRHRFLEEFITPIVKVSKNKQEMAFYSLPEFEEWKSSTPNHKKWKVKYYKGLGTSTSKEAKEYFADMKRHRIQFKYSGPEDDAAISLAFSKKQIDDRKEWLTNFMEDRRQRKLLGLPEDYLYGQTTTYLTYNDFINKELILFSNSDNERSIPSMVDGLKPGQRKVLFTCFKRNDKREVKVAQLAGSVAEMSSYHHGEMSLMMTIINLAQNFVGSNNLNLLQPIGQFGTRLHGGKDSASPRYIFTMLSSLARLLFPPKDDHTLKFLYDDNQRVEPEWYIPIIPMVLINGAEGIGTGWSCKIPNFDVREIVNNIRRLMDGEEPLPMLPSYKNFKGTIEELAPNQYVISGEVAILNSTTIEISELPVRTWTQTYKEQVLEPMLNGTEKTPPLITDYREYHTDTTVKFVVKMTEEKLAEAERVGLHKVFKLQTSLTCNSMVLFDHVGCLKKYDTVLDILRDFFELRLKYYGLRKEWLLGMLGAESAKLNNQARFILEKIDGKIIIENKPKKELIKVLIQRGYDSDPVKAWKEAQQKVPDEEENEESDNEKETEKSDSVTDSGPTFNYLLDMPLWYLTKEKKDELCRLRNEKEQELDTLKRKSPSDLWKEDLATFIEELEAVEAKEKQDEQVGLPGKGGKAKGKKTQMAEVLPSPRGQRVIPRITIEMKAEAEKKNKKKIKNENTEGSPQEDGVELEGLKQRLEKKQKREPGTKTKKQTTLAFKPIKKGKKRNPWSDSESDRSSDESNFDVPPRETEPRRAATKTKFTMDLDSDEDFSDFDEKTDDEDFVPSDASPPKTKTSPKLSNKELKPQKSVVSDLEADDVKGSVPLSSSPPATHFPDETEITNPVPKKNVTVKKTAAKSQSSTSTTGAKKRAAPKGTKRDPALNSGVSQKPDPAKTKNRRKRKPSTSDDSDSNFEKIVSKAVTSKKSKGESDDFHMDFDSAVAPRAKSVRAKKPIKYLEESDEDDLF

Molecule | ΔTm ct-DNA (calf thymus DNA (ct-DNA) [1]) [°C] | IC50 (HepG2 cells [2]) [µM] | bathochromic shift (calf thymus DNA (ct-DNA) [3]) | 8-oxo-dG level in cellular DNA (HepG2 cells [4]) | IC50 (human topoisomerase IIα) [µM] | ΔTm ct-DNA (calf thymus DNA (ct-DNA) [5]) [°C] | IC50 (HepG2 cells [6]) [µM]
N-[2-(N-Pyrrolidinyl)ethyl]-4-{1-[3-(1,2-dicarba-closo-dodecaborane-1-yl)propyl]-1H-1,2,3-triazol-4-yl}methoxy-1,8-naphthalimide [Compound 17] | 0.67 | 36.9 ± 3.72 | 1–2 nm |  |  |  | 
N-[2-(N-Pyrrolidinyl)ethyl]-4-{1-[3-(1,7-dicarba-closo-dodecaborane-1-yl)propyl]-1H-1,2,3-triazol-4-yl}-1,8-naphthalimide [Compound 11] | 0.33 | 14.6 ± 0.43 | 1–2 nm |  |  |  | 
CN(C)CCN1C(=O)c2cccc3cc([N+](=O)[O-])cc(c23)C1=O [Mitonafide, mitonafide] |  |  |  | Mitonafide—28.24 ± 0.18 per 10^6 dG [8]. | 5.13 | 5.17 | < 1
O=C1c2cccc3cc([N+](=O)[O-])cc(c23)C(=O)N1CCN1CCCC1 [Pinafide, pinafide] |  |  |  |  |  | 6.50 | 1.23
N-[2-(N-Pyrrolidinyl)ethyl]-4-{1-[3-(1,7-dicarba-closo-dodecaborane-1-yl)propyl]-1H-1,2,3-triazol-4-yl}methoxy-1,8-naphthalimide [Compound 19] | 0.67 | 15 ± 0.57 | 1–2 nm |  |  |  | 
